This assay has as its system L1210 leukemia ip in BDF1 mice, survival T/C. Nature of the assay: NCI In Vivo Anticancer Drug Screen. Data for tumor model L1210 Leukemia (intraperitoneal) in B6D2F1 (BDF1) mice. The note with it: endpoint: mean survival time, higher = longer survival. In a few lines: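 Read-out is survival time, reported as the treated-group measurement over the vehicle-control measurement.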

The mark [1] stands for this setting: dose: 100.0 mg/kg/injection, schedule: Q01DX009 (ip), vehicle: Klucel (hydroxypropylcellulose) (HPC).
The mark [2] stands for this setting: dose: 200.0 mg/kg/injection, schedule: Q01DX009 (ip), vehicle: Klucel (hydroxypropylcellulose) (HPC).
Where [3] appears, read: dose: 400.0 mg/kg/injection, schedule: Q01DX009 (ip), vehicle: Klucel (hydroxypropylcellulose) (HPC).
Where [4] appears, read: dose: 50.0 mg/kg/injection, schedule: Q01DX001 (ip), vehicle: carboxymethylcellulose (CMC).
The mark [5] stands for this setting: dose: 100.0 mg/kg/injection, schedule: Q01DX001 (ip), vehicle: carboxymethylcellulose (CMC).
[6] abbreviates: dose: 200.0 mg/kg/injection, schedule: Q04DX003 (ip), vehicle: Klucel (hydroxypropylcellulose) (HPC).
Where [7] appears, read: dose: 400.0 mg/kg/injection, schedule: Q04DX003 (ip), vehicle: Klucel (hydroxypropylcellulose) (HPC).
Where [8] appears, read: dose: 200.0 mg/kg/injection, schedule: Q01DX001 (ip), vehicle: carboxymethylcellulose (CMC).
Where [9] appears, read: dose: 400.0 mg/kg/injection, schedule: Q01DX001 (ip), vehicle: carboxymethylcellulose (CMC).
Setting [10] is: dose: 100.0 mg/kg/injection, schedule: Q04DX003 (ip), vehicle: Klucel (hydroxypropylcellulose) (HPC).

Toxic doses and inconclusive results are not listed.

For the molecule `CCC(=O)/C=C/c1ccc([N+](=O)[O-])cc1`, the T/C was 101 % of control (dose: 100.0 mg/kg/injection, schedule: Q04DX003 (ip), vehicle: other); 93 % of control (dose: 200.0 mg/kg/injection, schedule: Q04DX003 (ip), vehicle: other); 93 % of control (dose: 400.0 mg/kg/injection, schedule: Q04DX003 (ip), vehicle: other).
`O=C(/C=C/c1ccccc1[N+](=O)[O-])c1ccccc1`: the T/C by setting is: under setting [1], 97 % of control; under setting [2], 101 % of control; under setting [3], 98 % of control.
With `C=C1C(=O)OC2CC(C)C3CC(O)OC(O)C3(C)CC12` (configuration not stated), the T/C is, setting by setting: (dose: 0.39 mg/kg/injection, schedule: Q01DX005 (ip), vehicle: water) 108 % of control; (dose: 0.78 mg/kg/injection, schedule: Q01DX005 (ip), vehicle: water) 108 % of control; (dose: 1.56 mg/kg/injection, schedule: Q01DX005 (ip), vehicle: water) 106 % of control; (dose: 3.13 mg/kg/injection, schedule: Q01DX005 (ip), vehicle: water) 106 % of control; (dose: 6.25 mg/kg/injection, schedule: Q01DX005 (ip), vehicle: water) 104 % of control.
Take `COc1cc2c(c(OC)c1OC)-c1cc(I)c(O)cc1[C@@H](NC(C)=O)CC2`: the T/C is 104 % of control (dose: 8.0 mg/kg/injection, schedule: Q01DX Z (ip), vehicle: carboxymethylcellulose (CMC)); 114 % of control (dose: 11.0 mg/kg/injection, schedule: Q01DX009 (ip), vehicle: saline with Tween-80); 109 % of control (dose: 12.0 mg/kg/injection, schedule: Q01DX Z (ip), vehicle: carboxymethylcellulose (CMC)); 115 % of control (dose: 16.5 mg/kg/injection, schedule: Q01DX009 (ip), vehicle: saline with Tween-80); 119 % of control (dose: 18.0 mg/kg/injection, schedule: Q01DX Z (ip), vehicle: carboxymethylcellulose (CMC)); 110 % of control (dose: 25.0 mg/kg/injection, schedule: Q01DX009 (ip), vehicle: saline with Tween-80). The T/C was 118 % of control (dose: 28.0 mg/kg/injection, schedule: Q01DX Z (ip), vehicle: carboxymethylcellulose (CMC)); 123 % of control (dose: 28.0 mg/kg/injection, schedule: Q01DX Z (ip), vehicle: saline); 104 % of control (dose: 40.0 mg/kg/injection, schedule: Q01DX015 (ip), vehicle: carboxymethylcellulose (CMC)); 100 % of control (dose: 44.0 mg/kg/injection, schedule: Q04DX003 (ip), vehicle: saline sonified); 122 % of control (dose: 45.0 mg/kg/injection, schedule: Q01DX Z (ip), vehicle: saline); 124 % of control under setting [4]. In addition, the T/C is, setting by setting: (dose: 65.0 mg/kg/injection, schedule: Q01DX Z (ip), vehicle: saline) 105 % of control; (dose: 66.0 mg/kg/injection, schedule: Q04DX003 (ip), vehicle: saline sonified) 107 % of control; under setting [5], 120 % of control; (dose: 100.0 mg/kg/injection, schedule: Q01DX009 (ip), vehicle: saline sonified) 124 % of control; (dose: 100.0 mg/kg/injection, schedule: Q01DX Z (ip), vehicle: carboxymethylcellulose (CMC)) 122 % of control; (dose: 100.0 mg/kg/injection, schedule: Q04DX003 (ip), vehicle: saline sonified) 108 % of control. Also, the T/C (dose: 150.0 mg/kg/injection, schedule: Q04DX003 (ip), vehicle: saline sonified) is 124 % of control; the T/C under setting [6] was 111 % of control; the T/C (dose: 400.0 mg/kg/injection, schedule: Q01DX009 (ip), vehicle: saline sonified) is 165 % of control; the T/C under setting [7] was 96 % of control.
Regarding `CCOC(=O)NP(=O)(NNc1ccccc1)NNc1ccccc1`, the T/C by setting is: under setting [4], 104 % of control; under setting [5], 89 % of control; under setting [8], 95 % of control; under setting [9], 89 % of control.
Take `Cc1ccccc1NC(=O)Oc1ccc2c(C)cc(=O)oc2c1`: the T/C by setting is: under setting [1], 103 % of control; under setting [2], 100 % of control.
On to `COc1cc2c(cc1OC)[C@H]1CNC[C@H]1[C@@H](c1ccccc1)C2`, for which the T/C (dose: 50.0 mg/kg/injection, schedule: Q01DX009 (ip), vehicle: saline) is 95 % of control; the T/C (dose: 100.0 mg/kg/injection, schedule: Q01DX009 (ip), vehicle: saline) is 106 % of control; the T/C (dose: 100.0 mg/kg/injection, schedule: Q04DX003 (ip), vehicle: saline) is 97 % of control; the T/C (dose: 200.0 mg/kg/injection, schedule: Q01DX009 (ip), vehicle: saline) is 106 % of control; the T/C (dose: 200.0 mg/kg/injection, schedule: Q04DX003 (ip), vehicle: saline) is 106 % of control.
As to `O=C(Nc1ccccc1C(F)(F)F)c1ccc(Cl)cc1`, the T/C is, setting by setting: under setting [1], 97 % of control; under setting [10], 93 % of control; under setting [2], 103 % of control; under setting [6], 99 % of control; under setting [3], 94 % of control; under setting [7], 88 % of control.
With `COc1ccc(S(=O)(=O)/N=C(/C2CC3=CCC4C5CCC(=O)C5(C)CC(=O)C4C3(C)C2)N2CCCC2)cc1` (configuration not stated), the T/C reads like this: (dose: 100.0 mg/kg/injection, schedule: Q01DX001 (ip), vehicle: other) 103 % of control; (dose: 200.0 mg/kg/injection, schedule: Q01DX001 (ip), vehicle: other) 108 % of control; (dose: 400.0 mg/kg/injection, schedule: Q01DX001 (ip), vehicle: other) 98 % of control.
As for `CCN(C(=O)Nc1ccc(SC)cc1)c1ccccc1`, the T/C reads like this: under setting [1], 103 % of control; under setting [2], 108 % of control.
`COn1c(=O)[nH]c2ccccc2c1=O`: the T/C is 94 % of control (dose: 100.0 mg/kg/injection, schedule: Q01DX009 (ip), vehicle: saline with Tween-80); 91 % of control (dose: 200.0 mg/kg/injection, schedule: Q01DX009 (ip), vehicle: saline with Tween-80); 97 % of control (dose: 400.0 mg/kg/injection, schedule: Q01DX009 (ip), vehicle: saline with Tween-80).
As for `CC1Nc2ccccc2-c2ccccc2C1=O` (configuration not stated), the T/C is 107 % of control under setting [5], 102 % of control under setting [8] and 102 % of control under setting [9].
On to `O=CC(CCN1CCCC1)(CCN1CCCC1)c1cccc2ccccc12`, for which the T/C is 97 % of control (dose: 12.5 mg/kg/injection, schedule: Q04DX003 (ip), vehicle: saline); 108 % of control (dose: 25.0 mg/kg/injection, schedule: Q04DX003 (ip), vehicle: saline); 93 % of control (dose: 50.0 mg/kg/injection, schedule: Q04DX003 (ip), vehicle: saline).
`O=C1CCC/C1=C/c1ccco1`: the T/C (dose: 100.0 mg/kg/injection, schedule: Q04DX002 (ip), vehicle: saline with Tween-80) is 105 % of control; the T/C (dose: 200.0 mg/kg/injection, schedule: Q04DX002 (ip), vehicle: saline with Tween-80) was 105 % of control; the T/C (dose: 400.0 mg/kg/injection, schedule: Q04DX002 (ip), vehicle: saline with Tween-80) was 94 % of control.
Turning to `COc1cc(C2N(c3ccccc3)CCN2c2ccccc2)cc(OC)c1OC`, the T/C by setting is: under setting [1], 97 % of control; under setting [10], 90 % of control; under setting [6], 93 % of control; under setting [3], 94 % of control; under setting [7], 95 % of control.
In the case of `Cc1ccc(OCCOc2ccc(C(=O)O)cc2)cc1`, the T/C is 95 % of control under setting [10], 101 % of control under setting [6] and 101 % of control under setting [7].
For `Clc1c(C(Cl)(Cl)Cl)nc2ccccc2c1Cl`, the T/C by setting is: (dose: 12.5 mg/kg/injection, schedule: Q01DX009 (ip), vehicle: Klucel (hydroxypropylcellulose) (HPC)) 115 % of control; (dose: 25.0 mg/kg/injection, schedule: Q01DX009 (ip), vehicle: Klucel (hydroxypropylcellulose) (HPC)) 107 % of control; (dose: 50.0 mg/kg/injection, schedule: Q01DX009 (ip), vehicle: Klucel (hydroxypropylcellulose) (HPC)) 86 % of control.
With `CC(=O)/C(=C\c1ccccc1)CNC(C)(C)C`, the T/C (dose: 100.0 mg/kg/injection, schedule: Q01DX001 (ip), vehicle: saline) was 92 % of control.
As for `Nn1c(C(F)(F)F)n[nH]c1=S`, the T/C was 103 % of control (dose: 100.0 mg/kg/injection, schedule: Q04DX003 (ip), vehicle: alcohol); 101 % of control (dose: 200.0 mg/kg/injection, schedule: Q04DX003 (ip), vehicle: alcohol); 95 % of control (dose: 400.0 mg/kg/injection, schedule: Q04DX003 (ip), vehicle: alcohol).

Values taken from PubChem BioAssay AID248 (DTP/NCI, 2004).
